Experiment: Pharmacokinetic profile after single oral, intranasal and intravenous betahistine in beagle dogs, Example 5
Format: in vivo
Conditions: beagle, dog, in vivo; for concentration at 6 h / concentration at 24 h / concentration at 0 h / concentration at 5 min / concentration at 0.167 h / concentration at 0.333 h / concentration at 0.5 h / concentration at 1 h / concentration at 2 h / concentration at 3 h: Betahistine Plasma Concentration
Protocol: In this study, the pharmacokinetic profile of betahistine was evaluated after a single dose administration of betahistine in male and female beagle dogs (age 5-7 months; weight of 5-11 kg, within a range of 3 kg for each sex) for three routes of administration: oral, intranasal, and intravenous.
On Day 1 of the study, betahistine (BH) was delivered orally at a dose of 12 mg/kg, 24 mg/kg, or 48 mg/kg. Each treatment group comprised 8 animals (4 males and 4 females). For pharmacokinetic assessment, plasma samples were collected prior to dosing, and then at 5, 10, 20 and 30 min, 1, 2, 3, 6, 24 hours after dosing.
On Day 8 of the study, the animals that received oral BH at a dose of 12 mg/kg were administered the test betahistine composition intranasally at a dose of 40 mg betahistine dihydrochloride; the animals that received oral BH at a dose of 24 mg/kg were administered the test betahistine composition intranasally at a dose of 80 mg betahistine dihydrochloride; and the animals that received oral BH at a dose of 48 mg/kg were administered the test betahistine composition intranasally at a dose of 120 mg betahistine dihydrochloride. The test betahistine composition was delivered intranasally in a single dose via an Aptar nasal spray pump device at a total dose level of 40, 80 and 120 mg of betahistine dihydrochloride. Plasma samples were collected prior to dosing, and then at 5, 10, 20 and 30 min, 1, 2, 3, 6, 24 hours after dosing.
On Day 15 of the study, the animals that received oral BH at a dose of 12 mg/kg and the test betahistine composition intranasally at a dose of 40 mg betahistine dihydrochloride were administered a bolus intravenous injection of betahistine at a dose of 0.44 mg/kg. Plasma samples were collected prior to dosing, and then at 5, 10, 20 and 30 min, 1, 2, 3, 6, 24 hours after dosing.
Betahistine 13CD3 dihydrochloride and 2-pyridylacetic acid-D4 hydrochloride were used as respective internal standards. The calibration range for betahistine was 0.05-250 ng/mL and for 2-PAA 2.00-3000 ng/mL using a plasma sample volume of 0.50 mL.
For determination of betahistine, the method involved liquid-liquid extraction, for 2-PAA, the method involved protein precipitation. Plasma samples were prepared for betahistine by extraction under basic conditions with an organic solvent, then the organic phase was dried, reconstituted and transferred for LC/MS-MS analysis. […] Sample analysis was performed using reversed phase chromatography.

[1] = male, inhaled or intranasal, 5 mg/kg
[2] = male, inhaled or intranasal, 9.8 mg/kg
[3] = male, inhaled or intranasal, 15.8 mg/kg

CNCCc1ccccn1 [betahistine]
concentration at 6 h (female, po, 24 mg/kg): 0.342 ng/mL | concentration at 24 h (female, po, 24 mg/kg): 0 ng/mL | AUC(0-6)/D (female, po, 48 mg/kg): 1.61 ± 0.528 hr*ng/mL/(mg/kg) | AUC(0-inf) (female, po, 48 mg/kg): 69.2 ± 23.3 ng·h/mL | Cmax (female, po, 48 mg/kg): 33.5 ± 9.11 ng/mL | Cmax/D (female, po, 48 mg/kg): 0.697 ± 0.190 ng/mL/(mg/kg) | Oral AUC/dose (female, po, 48 mg/kg): 1.61 (h · ng/mL)/(mg/kg) | Tmax (female, po, 48 mg/kg): 60 min | half-life (female, po, 48 mg/kg): 35.9 min | AUC(0-t) (female, po, 48 mg/kg, AUC(0-6)): 77.5 ± 25.4 ng·h/mL | AUC(0-t) (female, po, 48 mg/kg, AUC(0-t)): 77.5 ± 25.4 ng·h/mL | concentration at 0 h (female, po, 48 mg/kg): 0 ng/mL | concentration at 5 min (female, po, 48 mg/kg): 9.87 ng/mL | concentration at 0.167 h (female, po, 48 mg/kg): 9.24 ng/mL | concentration at 0.333 h (female, po, 48 mg/kg): 11.5 ng/mL | concentration at 0.5 h (female, po, 48 mg/kg): 19.4 ng/mL | concentration at 1 h (female, po, 48 mg/kg): 32.8 ng/mL | concentration at 2 h (female, po, 48 mg/kg): 21.3 ng/mL | concentration at 3 h (female, po, 48 mg/kg): 10.1 ng/mL | concentration at 6 h (female, po, 48 mg/kg): 0.64 ng/mL | concentration at 24 h (female, po, 48 mg/kg): 0 ng/mL | AUC(0-inf) [1]: 131 ng·h/mL | AUC(0-t)/D [1]: 36.4 ± 24.4 hr*ng/mL/(mg/kg) | Cmax [1]: 598 ng/mL | Cmax/D [1]: 120 ± 90.1 ng/mL/(mg/kg) | Intranasal AUC/dose [1]: 36.4 (h · ng/mL)/(mg/kg) | Tmax [1]: 10.2 min | AUC(0-t) (male, inhaled or intranasal, 5 mg/kg, AUC(0-6)): 178 ± 122 ng·h/mL | AUC(0-t) (male, inhaled or intranasal, 5 mg/kg, AUC(0-t)): 182 ± 122 ng·h/mL | AUC(0-inf) [2]: 202 ± 156 ng·h/mL | AUC(0-t)/D [2]: 17.5 ± 14.3 hr*ng/mL/(mg/kg) | Cmax [2]: 735 ng/mL | Cmax/D [2]: 75.0 ± 56.9 ng/mL/(mg/kg) | Intranasal AUC/dose [2]: 17.5 (h · ng/mL)/(mg/kg) | Tmax [2]: 7.8 min | AUC(0-t) (male, inhaled or intranasal, 9.8 mg/kg, AUC(0-6)): 168 ± 140 ng·h/mL | AUC(0-t) (male, inhaled or intranasal, 9.8 mg/kg, AUC(0-t)): 172 ± 140 ng·h/mL | AUC(0-t)/D [3]: 12.6 ± 4.97 hr*ng/mL/(mg/kg) | Cmax [3]: 765 ng/mL | Cmax/D [3]: 48.4 ± 23.7 ng/mL/(mg/kg) | Intranasal AUC/dose [3]: 12.6 (h · ng/mL)/(mg/kg) | Tmax [3]: 7.8 min | AUC(0-t) (male, inhaled or intranasal, 15.8 mg/kg, AUC(0-6)): 194 ± 79.8 ng·h/mL | AUC(0-t) (male, inhaled or intranasal, 15.8 mg/kg, AUC(0-t)): 199 ± 78.5 ng·h/mL | AUC(0-inf) (male, iv, 0.44 mg/kg): 18.4 ng·h/mL | AUC(0-t)/D (male, iv, 0.44 mg/kg): 44.3 ± 11.5 hr*ng/mL/(mg/kg) | Cmax (male, iv, 0.44 mg/kg): 58.2 ng/mL | Cmax/D (male, iv, 0.44 mg/kg): 132 ng/mL/(mg/kg) | Tmax (male, iv, 0.44 mg/kg): 4.8 min | Vd (male, iv, 0.44 mg/kg): 32.1 L/kg | clearance (male, iv, 0.44 mg/kg): 398 mL/min/kg | half-life (male, iv, 0.44 mg/kg): 55.8 min | AUC(0-t) (male, iv, 0.44 mg/kg, AUC(0-6)): 19.5 ng·h/mL | AUC(0-t) (male, iv, 0.44 mg/kg, AUC(0-t)): 19.5 ng·h/mL | concentration at 0 h (male, iv, 0.44 mg/kg): 0.11 ng/mL | concentration at 5 min (male, iv, 0.44 mg/kg): 58.2 ng/mL | concentration at 0.167 h (male, iv, 0.44 mg/kg): 29.1 ng/mL | concentration at 0.333 h (male, iv, 0.44 mg/kg): 8.06 ng/mL | concentration at 0.5 h (male, iv, 0.44 mg/kg): 5.57 ng/mL | concentration at 1 h (male, iv, 0.44 mg/kg): 0.349 ng/mL | concentration at 2 h (male, iv, 0.44 mg/kg): 0.993 ng/mL | concentration at 3 h (male, iv, 0.44 mg/kg): 0.081 ng/mL | concentration at 6 h (male, iv, 0.44 mg/kg): 1.05 ng/mL | concentration at 24 h (male, iv, 0.44 mg/kg): 0 ng/mL | AUC(0-6)/D (male, po, 12 mg/kg): 1.04 ± 0.168 hr*ng/mL/(mg/kg) | AUC(0-inf) (male, po, 12 mg/kg): 13.3 ng·h/mL | Cmax (male, po, 12 mg/kg): 18.9 ± 9.99 ng/mL | Cmax/D (male, po, 12 mg/kg): 1.58 ± 0.833 ng/mL/(mg/kg) | Oral AUC/dose (male, po, 12 mg/kg): 1.04 (h · ng/mL)/(mg/kg) | Tmax (male, po, 12 mg/kg): 30 min | half-life (male, po, 12 mg/kg): 18.8 min | AUC(0-t) (male, po, 12 mg/kg, AUC(0-6)): 13 ± 2.23 ng·h/mL | AUC(0-t) (male, po, 12 mg/kg, AUC(0-t)): 12.5 ± 2.02 ng·h/mL | concentration at 0 h (male, po, 12 mg/kg): 0 ng/mL | concentration at 5 min (male, po, 12 mg/kg): 1.35 ng/mL | concentration at 0.167 h (male, po, 12 mg/kg): 2.73 ng/mL | concentration at 0.333 h (male, po, 12 mg/kg): 5.8 ng/mL | concentration at 0.5 h (male, po, 12 mg/kg): 18.9 ng/mL | concentration at 1 h (male, po, 12 mg/kg): 5.65 ng/mL | concentration at 2 h (male, po, 12 mg/kg): 0.457 ng/mL | concentration at 3 h (male, po, 12 mg/kg): 0.036 ng/mL | concentration at 6 h (male, po, 12 mg/kg): 0.016 ng/mL | concentration at 24 h (male, po, 12 mg/kg): 0.021 ng/mL | AUC(0-6)/D (male, po, 24 mg/kg): 1.44 ± 0.714 hr*ng/mL/(mg/kg) | AUC(0-inf) (male, po, 24 mg/kg): 34.6 ± 17.1 ng·h/mL | Cmax (male, po, 24 mg/kg): 38.3 ± 28.1 ng/mL | Cmax/D (male, po, 24 mg/kg): 1.60 ± 1.17 ng/mL/(mg/kg) | Oral AUC/dose (male, po, 24 mg/kg): 1.44 (h · ng/mL)/(mg/kg) | Tmax (male, po, 24 mg/kg): 60 min | half-life (male, po, 24 mg/kg): 47.1 min | AUC(0-t) (male, po, 24 mg/kg, AUC(0-6)): 34.5 ± 17.2 ng·h/mL | AUC(0-t) (male, po, 24 mg/kg, AUC(0-t)): 34.5 ± 17.1 ng·h/mL | concentration at 0 h (male, po, 24 mg/kg): 0 ng/mL | concentration at 5 min (male, po, 24 mg/kg): 4.69 ng/mL | concentration at 0.167 h (male, po, 24 mg/kg): 5.05 ng/mL | concentration at 0.333 h (male, po, 24 mg/kg): 23.9 ng/mL | concentration at 0.5 h (male, po, 24 mg/kg): 17.8 ng/mL | concentration at 1 h (male, po, 24 mg/kg): 26.9 ng/mL | concentration at 2 h (male, po, 24 mg/kg): 2.08 ng/mL | concentration at 3 h (male, po, 24 mg/kg): 0.611 ng/mL | concentration at 6 h (male, po, 24 mg/kg): 0.078 ng/mL | concentration at 24 h (male, po, 24 mg/kg): 0 ng/mL | AUC(0-6)/D (male, po, 48 mg/kg): 2.73 ± 0.590 hr*ng/mL/(mg/kg) | AUC(0-inf) (male, po, 48 mg/kg): 133 ng·h/mL | Cmax/D (male, po, 48 mg/kg): 2.13 ± 0.628 ng/mL/(mg/kg) | Oral AUC/dose (male, po, 48 mg/kg): 2.73 (h · ng/mL)/(mg/kg) | Tmax (male, po, 48 mg/kg): 60 min | half-life (male, po, 48 mg/kg): 31.3 min | AUC(0-t) (male, po, 48 mg/kg, AUC(0-6)): 131 ± 28.3 ng·h/mL | AUC(0-t) (male, po, 48 mg/kg, AUC(0-t)): 131 ± 28.3 ng·h/mL | concentration at 0 h (male, po, 48 mg/kg): 0 ng/mL | concentration at 5 min (male, po, 48 mg/kg): 14.3 ng/mL | concentration at 0.167 h (male, po, 48 mg/kg): 35.7 ng/mL | concentration at 0.333 h (male, po, 48 mg/kg): 14.3 ng/mL | concentration at 0.5 h (male, po, 48 mg/kg): 33.7 ng/mL | concentration at 1 h (male, po, 48 mg/kg): 80.2 ng/mL | concentration at 2 h (male, po, 48 mg/kg): 21.7 ng/mL | concentration at 3 h (male, po, 48 mg/kg): 3 ng/mL | concentration at 6 h (male, po, 48 mg/kg): 0.238 ng/mL | concentration at 24 h (male, po, 48 mg/kg): 0 ng/mL
